Data: patent publication US5866548A, “Caged membrane-permeant inositol phosphates” (priority 1996, dated 1999)
pEC50, pIC50: −log10 of the molar value. Entries after “also recorded” stand apart in the source; their conditions may differ.

Tests used:
1321N1 astrocytoma cells [1] = assay: Cytosolic free Ca2+ imaging, fura-2; format: cell-based
Description: Biological tests on 1321N1 astrocytoma cells were performed similarly to the tests on REF-52 cells (71). The concentration of Cytosolic free Ca^2+ (ordinate, in units of μM) in fura-2-loaded 1321N1 astrocytoma cells is shown as a function of time (abscissa, in units of seconds). At the dotted vertical line labeled 1, 20 μM inositol-1,4,5-triphosphate propionyloxymethyl ester (5a, R=Et, R'=H) was added. […] Subsequently the cells could respond to carbachol (200 μM, delivered at the dotted vertical line labeled 2), a drug that stimulates the endogenous generation of inositol-1,4,5-triphosphate. However, the response to carbachol is depressed by the prior treatment with the inositol-1,4,5-triphosphate propionyloxymethyl ester. Likewise the Ca^2+ response to thapsigargin (100 nM, delivered at the dotted vertical line labeled 3), another drug that releases stored Ca^2+, is depressed.
A test similar to the one shown in FIG. 7 was conducted except that the medium lacked extracellular Ca^2+ and a dose of 60 μM inositol-1,4,5-triphosphate propionyloxymethyl ester was added at the dotted vertical line labeled 1. […] Because no extracellular Ca^2+ was present, this response must have represented release from intracellular Ca^2+ stores. […] The much greater degree of inhibition of the carbachol response compared to the previous example (FIG. 7) is due to the higher dose of the inositol-1,4,5-triphosphate propionyloxymethyl ester and the absence of extracellular Ca^2+, which reduces refilling of Ca^2+ stores.
In a further example, the same test as set forth above was conducted with astrocytoma cells, except that 2 μM inositol-1,4,5-triphosphate butyryloxymethyl ester (5a, R=Pr, R'=H) was used instead of the propionyloxymethyl ester.

REF-52 fibroblasts = assay: Cytosolic free Ca2+ imaging, fura-2; format: cell-based
Description: The best-established biological effect of IP3 is to release Ca^2+ from internal stores (26), so IP3 /PM (5a, R=Et, R'=H) was tested by imaging cytosolic free Ca^2+ levels in single REF-52 fibroblasts using standard methodology (58). Cells were loaded with the Ca^2+ -indicator fura-2 and viewed by fluorescence excitation ratioing. IP3 /PM (40 μM) was applied extracellularly while monitoring cytosolic Ca^2+ concentrations.

IP3 receptor (IP3 R) = biological target: T1, IP3 receptor (IP3 R) (Bos taurus, UniProt Q9TU34); assay: [3H]IP3 binding assay, bovine cerebellum microsomal fractions; details: for affinity to IP3 R / binding to cerebellar microsomes (in words): without photolysis
T1 construct: from tissue; host or cells: bovine cerebellum microsomal fractions
T1 sequence (Q9TU34 whole entry): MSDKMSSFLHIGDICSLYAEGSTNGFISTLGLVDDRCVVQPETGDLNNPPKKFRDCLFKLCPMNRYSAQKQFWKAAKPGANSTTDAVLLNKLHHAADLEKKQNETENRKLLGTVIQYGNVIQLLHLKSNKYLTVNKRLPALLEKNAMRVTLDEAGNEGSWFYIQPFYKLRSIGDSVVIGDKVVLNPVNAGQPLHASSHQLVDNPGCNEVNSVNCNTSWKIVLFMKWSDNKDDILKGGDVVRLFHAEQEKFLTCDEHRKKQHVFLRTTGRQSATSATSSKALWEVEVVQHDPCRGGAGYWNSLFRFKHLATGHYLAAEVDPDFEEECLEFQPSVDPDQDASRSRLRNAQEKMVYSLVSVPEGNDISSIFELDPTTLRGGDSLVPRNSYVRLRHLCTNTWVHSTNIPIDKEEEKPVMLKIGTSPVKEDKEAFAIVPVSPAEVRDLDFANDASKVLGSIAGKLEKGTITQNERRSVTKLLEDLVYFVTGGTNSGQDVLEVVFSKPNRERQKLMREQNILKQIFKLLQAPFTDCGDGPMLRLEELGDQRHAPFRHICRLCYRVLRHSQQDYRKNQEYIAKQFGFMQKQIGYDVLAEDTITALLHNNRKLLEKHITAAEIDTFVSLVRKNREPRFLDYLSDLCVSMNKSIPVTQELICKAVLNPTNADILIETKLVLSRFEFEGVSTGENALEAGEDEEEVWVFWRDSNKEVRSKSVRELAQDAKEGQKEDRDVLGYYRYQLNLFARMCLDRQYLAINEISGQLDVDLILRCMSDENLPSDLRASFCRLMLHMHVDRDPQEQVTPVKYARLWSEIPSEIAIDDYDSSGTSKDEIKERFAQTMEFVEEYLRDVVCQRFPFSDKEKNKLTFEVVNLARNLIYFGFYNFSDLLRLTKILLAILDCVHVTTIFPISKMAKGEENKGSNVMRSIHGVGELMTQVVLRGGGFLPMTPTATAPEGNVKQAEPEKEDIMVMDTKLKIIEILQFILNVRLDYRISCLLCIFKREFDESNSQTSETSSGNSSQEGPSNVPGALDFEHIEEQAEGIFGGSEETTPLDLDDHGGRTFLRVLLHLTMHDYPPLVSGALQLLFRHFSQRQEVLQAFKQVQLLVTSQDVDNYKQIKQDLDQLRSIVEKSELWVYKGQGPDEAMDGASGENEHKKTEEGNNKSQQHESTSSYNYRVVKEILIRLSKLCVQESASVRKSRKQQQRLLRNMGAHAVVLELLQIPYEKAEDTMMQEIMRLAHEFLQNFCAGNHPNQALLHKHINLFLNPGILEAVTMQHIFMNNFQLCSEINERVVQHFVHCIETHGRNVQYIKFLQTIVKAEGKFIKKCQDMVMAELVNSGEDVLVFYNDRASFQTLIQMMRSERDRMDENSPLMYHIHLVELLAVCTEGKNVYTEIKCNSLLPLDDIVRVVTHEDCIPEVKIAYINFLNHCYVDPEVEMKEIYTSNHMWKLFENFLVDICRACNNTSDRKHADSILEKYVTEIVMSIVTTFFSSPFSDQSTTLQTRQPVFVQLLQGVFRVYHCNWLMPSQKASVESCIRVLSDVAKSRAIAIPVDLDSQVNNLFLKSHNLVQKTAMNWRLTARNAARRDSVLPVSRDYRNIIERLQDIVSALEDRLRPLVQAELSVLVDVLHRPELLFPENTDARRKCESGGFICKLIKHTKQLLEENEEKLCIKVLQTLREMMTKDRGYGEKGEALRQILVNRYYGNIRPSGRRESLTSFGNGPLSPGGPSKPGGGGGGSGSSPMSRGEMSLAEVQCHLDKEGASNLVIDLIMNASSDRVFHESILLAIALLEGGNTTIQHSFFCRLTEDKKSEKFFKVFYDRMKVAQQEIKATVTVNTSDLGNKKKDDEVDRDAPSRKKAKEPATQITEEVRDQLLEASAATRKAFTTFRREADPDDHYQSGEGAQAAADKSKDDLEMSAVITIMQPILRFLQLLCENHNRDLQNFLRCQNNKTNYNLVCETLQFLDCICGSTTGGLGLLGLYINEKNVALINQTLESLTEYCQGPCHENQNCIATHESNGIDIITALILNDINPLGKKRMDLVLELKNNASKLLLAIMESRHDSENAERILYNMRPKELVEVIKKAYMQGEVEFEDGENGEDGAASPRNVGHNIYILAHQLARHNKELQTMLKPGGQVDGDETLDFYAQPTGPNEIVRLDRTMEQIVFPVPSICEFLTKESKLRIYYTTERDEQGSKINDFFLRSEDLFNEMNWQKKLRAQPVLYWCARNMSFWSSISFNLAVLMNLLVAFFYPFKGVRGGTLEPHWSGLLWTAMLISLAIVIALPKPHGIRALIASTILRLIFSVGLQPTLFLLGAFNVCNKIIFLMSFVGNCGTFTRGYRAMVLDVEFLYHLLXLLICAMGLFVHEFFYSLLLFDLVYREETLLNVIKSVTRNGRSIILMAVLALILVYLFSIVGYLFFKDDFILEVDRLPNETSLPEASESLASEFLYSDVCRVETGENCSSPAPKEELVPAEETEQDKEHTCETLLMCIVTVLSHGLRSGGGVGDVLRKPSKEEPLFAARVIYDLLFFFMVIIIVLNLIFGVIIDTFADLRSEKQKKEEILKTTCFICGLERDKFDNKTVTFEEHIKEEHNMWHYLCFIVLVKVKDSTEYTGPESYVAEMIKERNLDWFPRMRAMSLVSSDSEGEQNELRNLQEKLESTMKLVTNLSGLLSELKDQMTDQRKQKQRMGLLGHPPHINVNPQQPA
Description: Bovine cerebellum microsomal fractions, which are a rich source of IP3 binding protein, were prepared and used for [^3 H]IP3 binding assay. […] The IC50 of D-IP3 was about 8 nM.
At this point, the crude photolysis product from 100 pmol V-16 was equivalent in binding activity to 32 pmol of authentic IP3. […] The absolute stereochemistry of V-3 and its diastereomer was thus assigned.

phosphatase = assay: Intracellular retention and metabolic (phosphatase) stability; format: in vitro ADME
Description: In human embryonic kidney cells (HEK cells), the extracellular IP3 -CPM was washed away after the cells had been loaded with 50 μM of IP3 -CPM for 20 minutes. […] Cells in the same dish which had not been exposed to UV light were kept in the dark for over 6 hours. […] However, pretreatment of IP3 -CPM with acetic acid will unmask the 3-hydroxyl and enable the intracellular phosphorylation of delivered IP3.

1321N1 astrocytoma cells [2] = assay: [Ca2+]i response before and after UV uncaging, fluo-3; format: cell-based; details: for [Ca2+]i response after uncaging of IP3-CPM: Ca2+ free medium
Description: (b) Same experiment as (a) except done in Ca^2+ free medium (DPBS, O Ca^2+, 0.5 mM EGTA). UV exposure of the cells treated with IP3 -CPM still gave the same response, showing that the [Ca^2+ ]i increase resulted from the release of Ca^2+ from internal stores. […] The cells were loaded with fluo-3/AM. During the experiment the cells were bathed in HBS buffered with 20 mM Hepes at pH 7.4 and supplemented with 2 g/L glucose.
The [Ca^2+ ]i was monitored using the calcium indicator fluo-3 rather than fura-2 to keep the excitation wavelength of the indicator (490 nm) far from the uncaging wavelength (360 nm) of DMNB group. […] Compared to the photolyzing set-up (direct illumination by a hand mercury lamp) used for the IP3 -binding assay, the optical throughput from the source lamp to the specimen is much higher in a microscope, so 10 seconds (as opposed to 2 hours in IP3 binding assay) of photolysis was sufficient to produce enough IP3 to elicit [Ca^2+ ]i increase. The same amount of UV alone had no effect at all on [Ca^2+ ]i in cells not treated with IP3 -CPM. After recovering from uncaging of IP3 -CPM, the cells responded to subsequent carbachol and thapsigargin stimulation normally.
This confirmed that the [Ca^2+ ]i increase due to uncaging of IP3 -CPM resulted from internal Ca^2+ release, which was consistent with the normal mechanism of IP3 action.

[3] = system: P388D1 macrophage-like cells; assay: as above; format: cell-based; details: PAF 100 nM, ionomycin 5 μM
Description: The cells were loaded with fluo-3/AM. During the experiment the cells were bathed in HBS buffered with 20 mM Hepes at pH 7.4 and supplemented with 2 g/L glucose.
Another example was carried out in P388D1 macrophage-like cells.
Studies by Asmis et al. (92) have shown that, in P388D1 macrophage-like cells, PAF stimulated PGE2 production is mediated through two separate signals: IP3 induced [Ca^2+ ]i increase and another unidentified signal. IP3 -CPM might serve as a new tool for detailed study of PGE2 formation and AA release in relation to IP3 and [Ca^2+ ]i in these cells. One of the major advantages of using permeant IP3 derivatives is that experiments can be easily carried out in a population of cells, which is required for the measurement of AA release and PGE2 formation.

1321N1 astrocytoma cells [4] = assay: as above; format: cell-based; details: with extracellular Ca2+, carbachol 200 μM, thapsigargin 100 nM, ionomycin 5 μM
intestinal cell line T84 = assay: cells; format: cell-based; details: 0.2 h; T84, ISC 12 min after addition; read-out: EC50 (chloride secretion)
From the text: A convenient test system is the intestinal cell line T84, in which chloride secretion can be continuously monitored by mounting confluent monolayers of cells in Ussing chambers (42).

[5] = 20 μM compound, with extracellular Ca2+

Structure (SMILES): CCC(=O)OCOP(=O)(OCOC(=O)CC)O[C@@H]1[C@H](O)[C@H](O)[C@@H](OP(=O)(OCOC(=O)CC)OCOC(=O)CC)[C@H](OP(=O)(OCOC(=O)CC)OCOC(=O)CC)[C@H]1O [IP3 /PM, D-myo-inositol-1,4,5-triphosphate propionyloxymethyl ester]
- response to subsequent carbachol (200 μM) (1321N1 astrocytoma cells [1]; [5]): depressed
- response to subsequent thapsigargin (100 nM) (1321N1 astrocytoma cells [1]; [5]): depressed
- delay of Ca2+ elevation (1321N1 astrocytoma cells [1]; 20 μM, with extracellular Ca2+): about 100 second
- elevation of cytosolic Ca2+ (1321N1 astrocytoma cells [1]; 20 μM, with extracellular Ca2+): sizable elevation of cytosolic Ca^2+
- response to subsequent carbachol (200 μM) (1321N1 astrocytoma cells [1]; 60 μM compound, no extracellular Ca2+): greatly depressed
- delay of Ca2+ elevation (1321N1 astrocytoma cells [1]; 60 μM, no extracellular Ca2+): ~50 s
- elevation of cytosolic Ca2+ (1321N1 astrocytoma cells [1]; 60 μM, no extracellular Ca2+): sizable elevation of cytosolic Ca^2+
- effect of subsequent vasopressin after compound (REF-52 fibroblasts; REF-52, 40 μM compound): much less effect than normal
- cytosolic Ca2+ concentration (REF-52 fibroblasts; REF-52, 40 μM extracellular): increased rapidly
- Ca2+ release from internal stores (in words) (REF-52 fibroblasts; intact REF-52 fibroblasts and astrocytoma cells): released Ca^2+ from internal stores

Structure (SMILES): COC1O[C@@H]2[C@@H](OP(=O)(O)O)[C@H](OP(=O)(O)O)[C@@H](O)[C@H](OP(=O)(O)O)[C@@H]2O1 (stereo partly drawn) [D-2,3-methoxymethylene-myo-inositol 1,4,5-trisphosphate]
- affinity for IP3 receptor, fold weaker than IP3 (IP3 receptor (IP3 R); assuming 100% chemical yield of uncaged product): 3 fold
- affinity to IP3 R relative to IP3 (IP3 receptor (IP3 R); photolysis product): at least one third
- phosphorylation into 1,3,4,5-IP4 (in words) (phosphatase): can not be phosphorylated into 1,3,4,5-IP4
- internal Ca2+ release upon photolysis (in words) (1321N1 astrocytoma cells [2]; photolysis product of V-16 in cells): induced internal Ca^2+ release

Structure (SMILES): C[C@H](CCC(=O)O)C[C@H](C)C[C@H](C)C(=O)/C=C(\O)[C@H](C)C[C@H](C)C/C=C/[C@@H](C)[C@@H](O)[C@@H](C)[C@@H](O)C[C@@H]1CC[C@@](C)([C@H]2CC[C@@](C)([C@@H](C)O)O2)O1 [Ionomycin, reference compound]
- [Ca2+]i response after uncaging of IP3-CPM [3]: huge [Ca^2+ ]i increase
- [Ca2+]i response after recovery from uncaging of IP3-CPM (1321N1 astrocytoma cells [4]): further raised [Ca^2+ ]i to a saturating level; also recorded: huge [Ca^2+ ]i increase
- [Ca2+]i response after uncaging of IP3-CPM (1321N1 astrocytoma cells [2]): small and transient [Ca^2+ ]i increase; also recorded: additional small [Ca^2+ ]i increase

Structure (SMILES): CCCCCCCCCCCCCCCCOC[C@H](COP(=O)([O-])OCC[N+](C)(C)C)OC(C)=O [PAF, reference compound]
- [Ca2+]i response after uncaging of IP3-CPM [3]: smaller [Ca^2+ ]i increase; also recorded: attenuated response

Structure (SMILES): C[N+](C)(C)CCOC(N)=O [Carbachol]
- [Ca2+]i response after recovery from uncaging of IP3-CPM (1321N1 astrocytoma cells [4]): normal response
- [Ca2+]i response after recovery from uncaging of IP3-CPM (1321N1 astrocytoma cells [4]; listed as carbachol): normally
- [Ca2+]i response after uncaging of IP3-CPM (1321N1 astrocytoma cells [2]): able to cause further Ca^2+ release

Structure (SMILES): COc1cc(CO[C@@H]2[C@@H](OP(=O)(O)O)[C@H](OP(=O)(O)O)[C@H]3OC(OC)O[C@H]3[C@H]2OP(=O)(O)O)c([N+](=O)[O-])cc1OC (stereo partly drawn) [Compound V-16, D-2,3-O-methoxymethylene-6-O-(4,5-dimethoxy-2-nitrobenzyl)-myo-inositol 1,4,5-trisphosphate]
- amount of authentic IP3 equivalent in binding activity to crude photolysis product from 100 pmol V-16 (IP3 receptor (IP3 R); after about 2 h photolysis): 32 pmol
- binding to the receptor upon photolysis (IP3 receptor (IP3 R); photolysis at 366 nm): UV-dose-dependent increase of binding
- time at which binding leveled off on photolysis (IP3 receptor (IP3 R); photolysis at 366 nm): about 2 hours
- affinity to IP3 R / binding to cerebellar microsomes (in words) (IP3 receptor (IP3 R)): negligible binding
- phosphatase degradation / metabolic stability (in words) (phosphatase; in cells): metabolically fairly stable; also recorded: fairly resistant to phosphatase degradation
- retention in cells (in words) (phosphatase; in cells): well retained in cells; also recorded: could be trapped inside cells for a long period of time without losing much of its activity
- releasing Ca2+ without photolysis (1321N1 astrocytoma cells [2]; caged IP3 analog released inside cells): inactive in releasing Ca^2+

Structure (SMILES): O=P(O)(O)O[C@@H]1[C@@H](O)[C@H](OP(=O)(O)O)[C@@H](OP(=O)(O)O)[C@H](O)[C@@H]1O [L-IP3, reference compound]
- affinity to IP3 R / binding to cerebellar microsomes (in words) (IP3 receptor (IP3 R)): negligible affinity

Structure (SMILES): COc1cc(CO[C@@H]2[C@@H](OP(=O)(OCOC(C)=O)OCOC(C)=O)[C@H](OP(=O)(OCOC(C)=O)OCOC(C)=O)[C@H]3OC(OC)O[C@H]3[C@H]2OP(=O)(OCOC(C)=O)OCOC(C)=O)c([N+](=O)[O-])cc1OC (stereo partly drawn) [IP3 -CAM, D-2,3-O-methoxymethylene-6-O-(4,5-dimethoxy-2-nitrobenzyl)-myo-inositol 1,4,5-trisphosphate hexakis(acetoxymethyl)ester]
- incubation time required (1321N1 astrocytoma cells [2]; astrocytes, response similar to IP3-CPM): more than 15 minutes

Structure (SMILES): O=P(O)(O)O[C@@H]1[C@H](O)[C@H](O)[C@@H](OP(=O)(O)O)[C@H](OP(=O)(O)O)[C@H]1O [D-IP3, myo-inositol 1,4,5-triphosphate, reference compound]
- pIC50 (IP3 receptor (IP3 R); cerebellar microsomes, read-out: IC50, inhibition of [3H]IP3 binding): ~8.10

Structure (SMILES): Nc1ncnc2c1nc(Sc1ccc(Cl)cc1)n2[C@@H]1O[C@@H]2COP(=O)(O)O[C@H]2[C@H]1O [Compound 8-pCPT-cAMP, 8-para-chlorophenylthio (cCPT) cAMP, reference compound]
- pEC50 (intestinal cell line T84): 4.00

Structure (SMILES): CCCC(=O)OCOP(=O)(OCOC(=O)CCC)O[C@@H]1[C@H](O)[C@H](O)[C@@H](OP(=O)(OCOC(=O)CCC)OCOC(=O)CCC)[C@H](OP(=O)(OCOC(=O)CCC)OCOC(=O)CCC)[C@H]1O [IP3 /BM, D-myo-inositol-1,4,5-triphosphate butyryloxymethyl ester]
- Ca2+ elevation, potency compared with propionyloxymethyl ester (1321N1 astrocytoma cells [1]; 2 μM, with extracellular Ca2+): somewhat more potent
- time course compared with propionyloxymethyl ester (1321N1 astrocytoma cells [1]; 2 μM, with extracellular Ca2+): slower to appear and decay

Structure (SMILES): C/C=C(/C)C(=O)O[C@H]1C(C)=C2[C@H]([C@@H]1OC(=O)CCCCCCC)[C@@](C)(OC(C)=O)C[C@H](OC(=O)CCC)[C@@]1(O)[C@H]2OC(=O)[C@@]1(C)O [thapsigargin]
- [Ca2+]i response after recovery from uncaging of IP3-CPM (1321N1 astrocytoma cells [4]): normally; also recorded: normal response
- [Ca2+]i response after uncaging of IP3-CPM (1321N1 astrocytoma cells [2]): able to cause further Ca^2+ release
